Results: the supplement of paper PMC9386025

How the values were obtained:
Experiment in all cases: drug sensitivity score (DSS) (DSS (dimensionless)); higher = more sensitive (stronger drug response)
[1] = tested on: JHOS2
Method in brief: (§1)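 Ovarian cancer cell lines, with shRNA induced by 100 ng/ml doxycycline for at least three days, and patient-derived cultures were seeded at 1 000 – 1 500 cells per well in 384-well plates holding drugs pre-plated in five concentrations over a 10,000-fold range. After three days at 37 °C and 5.0 % CO2, viability was read as CellTiter-Glo luminescence on a PHERAstar FS. Each drug's dose-response curve was summarised as a drug sensitivity score calculated as previously described.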

[2] = tested on: FIMM-PDC4 (patient-derived ovarian cancer cells); details: genetic perturbation: none (patient-derived cell culture)
Method in brief: as §1

[3] = tested on: FIMM-PDC7 (patient-derived ovarian cancer cells); details: genetic perturbation: none (patient-derived cell culture)
Method in brief: as §1

[4] = tested on: FIMM-PDC5 (patient-derived ovarian cancer cells); details: genetic perturbation: none (patient-derived cell culture)
Method in brief: as §1

[5] = tested on: OVSAHO
Method in brief: as §1

[6] = tested on: FIMM-PDC6 (patient-derived ovarian cancer cells); details: genetic perturbation: none (patient-derived cell culture)
Method in brief: as §1

[7] = tested on: Kuramochi
Method in brief: as §1

[8] = tested on: FIMM-PDC3 (patient-derived ovarian cancer cells); details: genetic perturbation: none (patient-derived cell culture)
Method in brief: as §1

[9] = tested on: FIMM-PDC1 (patient-derived ovarian cancer cells); details: genetic perturbation: none (patient-derived cell culture)
Method in brief: as §1

[10] = genetic perturbation: DOX-induced PTK7 shRNA knockdown
[11] = genetic perturbation: DOX-induced control shRNA

SMILES	drug sensitivity score [1, 10]	drug sensitivity score [1, 11]	drug sensitivity score [2]	drug sensitivity score [3]	drug sensitivity score [4]	drug sensitivity score [5, 10]	drug sensitivity score [5, 11]	drug sensitivity score [6]	drug sensitivity score [7, 10]	drug sensitivity score [7, 11]	drug sensitivity score [8]	drug sensitivity score [9]
C[C@H]1O[C@@H](O[C@H]2[C@@H](O)C[C@H](O[C@H]3[C@@H](O)C[C@H](O[C@H]4CC[C@@]5(C)[C@H](CC[C@@H]6[C@@H]5C[C@@H](O)[C@]5(C)[C@@H](C7=CC(=O)OC7)CC[C@]65O)C4)O[C@@H]3C)O[C@@H]2C)C[C@H](O)[C@@H]1O [Digoxin]	17.2	13	14.6	12.5	11.9	8.6	8	16.6	8.45	7.4	12	9.4
CCc1cnn2c(NCc3ccc[n+]([O-])c3)cc(N3CCCC[C@H]3CCO)nc12 [Dinaciclib]	17.4	19.6	20.3	22.4	24.6	24.8	16.4	22.5	18.5	15.9	17.5	20.8
CC(=O)O[C@@]12CO[C@@H]1C[C@H](O)[C@@]1(C)C(=O)[C@H](O)C3=C(C)[C@@H](OC(=O)[C@H](O)[C@@H](NC(=O)OC(C)(C)C)c4ccccc4)C[C@@](O)([C@@H](OC(=O)c4ccccc4)[C@H]21)C3(C)C [Docetaxel]	20.3	12.7	18.8	7.2	21.5	7.6	13.5	7.4	18	4.4	21.6	15.6
COc1cccc2c1C(=O)c1c(O)c3c(c(O)c1C2=O)C[C@@](O)(C(=O)CO)C[C@@H]3O[C@H]1C[C@H](N)[C@H](O)[C@H](C)O1 [Doxorubicin]	7	7.6	6.8	6.6	5.4	5.8	4.7	3.7	5.1	5	6.4	4.7
Cc1ccc(NS(=O)(=O)c2cccc(C#N)c2)c2[nH]cc(C#N)c12 [E7820]	9.6	9.5	3	12.2	6.4	3	1.1	5.9	2.4	1.5	18.3	2.9
Cc1cc(Nc2cc(N3CCN(C)CC3)nc(/C=C/c3ccccc3)n2)n[nH]1 [ENMD-2076]	8.3	9.4	10.5	4.2	12.4	11.5	7.9	3.4	9.65	8.1	8.6	6
NC(=O)/C(=C/n1cnc(-c2cc(C(F)(F)F)cc(C(F)(F)F)c2)n1)c1cncnc1 [Eltanexor]	18.9	17	19.9	17.8	22.4	17.8	9.5	25.8	12.4	17	23.7	14.7
Nc1ccccc1NC(=O)c1ccc(CNC(=O)OCc2cccnc2)cc1 [Entinostat]	4.5	2.5	4.5	6.5	8.2	8.5	4.6	6.6	8.05	2.3	9	7.1
COc1cccc2c1C(=O)c1c(O)c3c(c(O)c1C2=O)C[C@@](O)(C(=O)CO)C[C@@H]3O[C@H]1C[C@H](N)[C@@H](O)[C@H](C)O1 [Epirubicin]	7.1	6.1	7.9	7.4	5.6	5.8	5.2	3.5	4.45	3.9	6.6	4.2
CCOc1ccccc1-n1c(C(C)N2CCN(C(=O)COc3ccc(Cl)cc3)CC2)nc2ccccc2c1=O (stereo unspecified) [Erastin]	14.6	16.2	< 0	3.3	< 0	12.9	4.7	< 0	4.8	8.5	17	0.85
C=C1C[C@@H]2CC[C@@]34C[C@H]5O[C@H]6[C@@H](O3)[C@H]3O[C@H](CC[C@@H]3O[C@H]6[C@H]5O4)CC(=O)C[C@@H]3[C@@H](OC)[C@@H](C[C@H](O)CN)O[C@H]3C[C@H]3O[C@@H](CC[C@@H]1O2)C[C@@H](C)C3=C [Eribulin]	19	11.7	21.1	12.2	25.5	18.6	15.3	12.3	18.6	5.7	20.7	15.9
C#Cc1cccc(Nc2ncnc3cc(OCCOC)c(OCCOC)cc23)c1 [Erlotinib]	1.2	3.5	12	10	17.2	15.1	2.4	12.1	1.5	3	11.3	3.3
COc1cc([C@@H]2c3cc4c(cc3[C@@H](O[C@@H]3O[C@@H]5CO[C@@H](C)O[C@H]5[C@H](O)[C@H]3O)[C@H]3COC(=O)[C@H]23)OCO4)cc(OC)c1O [Etoposide]	4.7	2.1	1.8	1	1.9	2.7	< 0	2.9	0.5	2	4.8	2.55
